One test has as its system HCV replicon in Huh-7 cells. Nature of the test: HCV replicon assay (NPT ELISA) for inhibition of HCV replication. The format is cell-based. The settings on record: Hepatitis C virus, Huh-7, 72 h, HCV replicon-containing Huh-7 cells, three days incubation. The method, then: Compounds claimed herein are tested for the ability to inhibit viral replication of the Hepatitis C replicon in cultured cells in which the HCV replicon construct has been incorporated. The HCV replicon system was described by Bartenschlager, et. al (Science, 285, pp. 110-113 (1999)). The replicon system is predictive of in vivo anti-HCV activity; compounds that are active in humans uniformly evidence activity in the replicon assay.
In this assay HCV replicon containing cells are treated with different concentrations of the test compound to ascertain the ability of the test compound to suppress replication of the HCV replicon. As a positive control, HCV replicon-containing cells are treated with different concentrations of interferon alpha, a known inhibitor of HCV replication. The replicon assay system includes Neomycin Phosphotransferase (NPT) as a component of the replicon itself in order to detect the transcription of replicon gene products in the host cell. Cells in which the HCV replicon is actively replicating have high levels of NPT; the level of NPT is proportional to HCV replication. […] The NPT level of each sample is measured using a captured ELISA.
A protocol for testing compounds for the ability to inhibit viral replication of the Hepatitis C replicon cultured cells in which the replicon construct has been incorporated, follows.
The HCV replicon contains, 5′-3′, the HCV-IRES, the neomycin phosphotransferase (neo) gene, the IRES of encephalomyocarditis virus, which directs translation of HCV sequences NS3 to NS5B, and the 3′-NTR. The sequence of the HCV replicon has been deposited in GenBank (Accession no. AJ242652).
The replicon is transfected into Huh-7 cells using standard methods such as electroporation.
The equipment and materials include, but are not limited to, Huh-7 HCV replicon-containing cells, maintenance media (DMEM (Dulbecco's modified Eagle media) supplemented with 10% FBS, L-glutamine, non-essential amino acids, penicillin (100 units/ml), streptomycin (100 micrograms/ml), and 500 micrograms/ml of Geneticin (G418), screening media (DMEM supplemented with 10% FBS, L-glutamine, non-essential amino acids, penicillin (100 units/ml) and streptomycin (100 micrograms/ml)), 96 well tissue culture plates (flat bottom), 96 well plates (U bottom for drug dilution), Interferon alpha for positive control, fixation reagent (such as methanol:acetone), primary antibody (rabbit anti-NPTII), secondary antibody: Eu-N11, and enhancement solution.
HCV replicon-containing cells support high levels of viral RNA replicon replication when their density is suitable. Over-confluency causes decreased viral RNA replication. Therefore, cells must be kept growing in log phase in the presence of 500 micrograms/ml of G418. Generally, cells should be passed twice a week at 1: 4-6 dilution. Cell maintenance is conducted as follows:
HCV replicon-containing cells are examined under a microscope to ensure that cells growing well. Cells are rinsed once with PBS and 2 ml trypsin is added. The cell/trypsin mixture is incubated at 37° C. in a CO2 incubator for 3-5 minutes. After incubation 10 ml of complete media is added to stop the trypsinization reaction. Cells are blown gently, put into a 15 ml tube, and spun at 1200 rpm for 4 minutes. The trypsin/medium solution is removed. Medium (5 ml) is added and the cells are mixed carefully. The cells are counted.
The cells are then seeded onto 96-well plates at a density of 6000-7500 cells/100 microliters/well (6-7.5×10^5 cells/10 ml/plate). The plates are then incubated at 37° C. in a 5% CO2 incubator.
Cells are examined under a microscope approximated 24 hours after seeding and prior to adding drugs. If counting and dilution were performed correctly, cells are 60-70% confluent and nearly all cells should attach and spread evenly in the well.
HCV replicon-containing cells are rinsed with once PBS once; 2 mls of trypsin are then added. Cells are incubated at 37° C. in a 5% CO2 incubator for 3-5 minutes. […]
(In antiviral work, replicon cells carry a viral genome segment that copies itself.)
Broadly, the EC50 is the concentration that produces a half-maximal response. In turn, `COc1ccc2c(O[C@@H]3C[C@H]4C(=O)N[C@]5(C(=O)NS(=O)(=O)C6CC6)C[C@H]5/C=C\CCCC(=O)N[C@@H](CC(=O)OC(C)(C)C)C(=O)N4C3)cc(-c3nc(C(C)C)cs3)nc2c1C` [Compound 16, tert-butyl 2-((2R,6S,14aR,16aS,Z)-14a-(cyclopropylsulfonylcarbamoyl)-2-(2-(4-isopropyithiazol-2-yl)-7-methoxy-8-methylquinolin-4-yloxy)-5,8,16-trioxo-1,2,3,5,6,7,8,9,10,11,13a,14,14a,15,16,16a-hexadecahydrocyclopropa[n]pyrrolo [2,1-c][1,4,7]triazacyclopentadecin-6-yl)acetate] returned an EC50 not above 10 µM.

Still in this test, the particulars now being: Hepatitis C virus, Huh-7, 72 h, HCV replicon-containing Huh-7 cells, three days incubation; read-out: EC50.
`COC(=O)CC1NC(=O)CCC/C=C\[C@@H]2C[C@@]2(C(=O)NS(=O)(=O)C2CC2)NC(=O)[C@@H]2C[C@@H](Oc3cc(-c4ccccc4)nc4cc(OC)ccc34)CN2C1=O` (stereo partly drawn) [Compound 13, methyl 2-((2R,14aR,16aS,Z)-14a-(cyclopropylsulfonylcarbamoyl)-2-(7-methoxy-2-phenylquinolin-4-yloxy)-5,8,16-trioxo-1,2,3,5,6,7,8,9,10,11,13a,14,14a,15,16,16a-hexadecahydrocyclopropa[n]pyrrolo[2,1-c] [1,4,7]triazacyclopentadecin-6-yl)acetate]: the EC50 was 1 to 10 µM.
Take `C=CCCCC(=O)N[C@@H](C(=O)N1C[C@H](Oc2cc(-c3ccccc3)nc3cc(OC)ccc23)C[C@H]1C(=O)N[C@@]1(C(=O)NS(=O)(=O)C2CC2)C[C@@H]1C=C)C(C)(C)C` [Compound 8, (2S,4R)-N-((1S,2R)-1-(cyclopropylsulfonylcarbamoyl)-2-vinylcyclopropyl)-1-((R)-2-hex-5-enamido-3,3-dimethylbutanoyl)-4-(7-methoxy-2-phenylquinolin-4-yloxy)pyrrolidine-2-carboxamide]: the EC50 fell in the range of 1 to 10 µM.
As for `COc1ccc2c(O[C@@H]3C[C@H]4C(=O)N[C@]5(C(=O)NS(=O)(=O)C6CC6)C[C@H]5/C=C\CCCC(=O)N[C@H](C(C)(C)C)C(=O)N4C3)cc(-c3ccccc3)nc2c1` [Compound 5, (2R,6R,13aS,14aR,16aS,Z)-6-tert-butyl-N-(cyclopropylsulfonyl)-2-(7-methoxy-2-phenylquinolin-4-yloxy)-5,8,16-trioxo-1,2,3,5,6,7,8,9,10,11,13a,14,14a,15,16,16a-hexadecahydrocyclopropa[n]pyrrolo[2,1-c] [1,4,7]triazacyclopentadecine-14a-carboxamide], the EC50 is more than 10 µM.
In the case of `CCOC(=O)[C@]12C[C@H]1/C=C\CCCC(=O)N[C@@H](C(C)(C)C)C(=O)N1C[C@H](Oc3cc(-c4ccccc4)nc4cc(OC)ccc34)C[C@H]1C(=O)N2` [Compound 2, (2R,6S,13aS,14aS,16aS,Z)-ethyl 6-tert-butyl-2-(7-methoxy-2-phenylquinolin-4-yloxy)-5,8,16-trioxo-1,2,3,5,6,7,8,9,10,11,13a,14,14a,15,16,16a-hexadecahydrocyclopropa[n]pyrrolo[2,1-c] [1,4,7]triazacyclopentadecine-14a-carboxylate], the EC50 is more than 10 µM.
Take `COc1ccc2c(O[C@@H]3C[C@H]4C(=O)N[C@]5(C(=O)NS(=O)(=O)C6CC6)C[C@H]5/C=C\CCCC(=O)N(C)CC(=O)N4C3)cc(-c3nc(C(C)C)cs3)nc2c1C` [Compound 18, (2R,14aR,16aS,Z)-N-(cyclopropylsulfonyl)-2-(2-(4-isopropyithiazol-2-yl)-7-methoxy-8-methylquinolin-4-yloxy)-7-methyl-5,8,16-trioxo-1,2,3,5,6,7,8,9,10,11,13a,14,14a,15,16,16a-hexadecahydrocyclopropa[n]pyrrolo[2,1-c] [1,4,7]triazacyclopentadecine-14a-carboxamide]: the EC50 was less than 1 µM.
Still for that read-out and setting: next, `COc1ccc2c(O[C@@H]3C[C@H]4C(=O)N[C@@]5(C(=O)NS(=O)(=O)C6CC6)C[C@@H]5/C=C\CCCC(=O)N[C@H](C(C)(C)C)C(=O)N4C3)cc(-c3ccccc3)nc2c1` [Compound 9, (2R,6R,13aR,14aS,16aS,Z)-6-tert-butyl-N-(cyclopropylsulfonyl)-2-(7-methoxy-2-phenylquinolin-4-yloxy)-5,8,16-trioxo-1,2,3,5,6,7,8,9,10,11,13a,14,14a,15,16,16a-hexadecahydrocyclopropa[n]pyrrolo[2,1-c] [1,4,7]triazacyclopentadecine-14a-carboxamide]: less than 1 µM; `COc1ccc2c(O[C@@H]3C[C@H]4C(=O)N[C@]5(C(=O)NS(=O)(=O)C6CC6)C[C@H]5/C=C\CCCC(=O)N[C@@H](C(C)(C)C)C(=O)N4C3)cc(-c3nc(C(C)C)cs3)nc2c1C` [Compound 19, (2R,6S,14aR,16aS,Z)-6-tert-butyl-N-(cyclopropylsulfonyl)-2-(2-(4-isopropyithiazol-2-yl)-7-methoxy-8-methylquinolin-4-yloxy)-5,8,16-trioxo-1,2,3,5,6,7,8,9,10,11,13a,14,14a,15,16,16a-hexadecahydrocyclopropa[n]pyrrolo[2,1-c] [1,4,7]triazacyclopentadecine-14a-carboxamide]: 1 to 10 µM; `COc1ccc2c(O[C@@H]3C[C@H]4C(=O)N[C@]5(C(=O)NS(=O)(=O)C6CC6)C[C@H]5/C=C\CCCC(=O)N[C@@H](CC(=O)OC(C)(C)C)C(=O)N4C3)cc(-c3nc(C(C)C)cs3)nc2c1C` [Compound 16, tert-butyl 2-((2R,6S,14aR,16aS,Z)-14a-(cyclopropylsulfonylcarbamoyl)-2-(2-(4-isopropyithiazol-2-yl)-7-methoxy-8-methylquinolin-4-yloxy)-5,8,16-trioxo-1,2,3,5,6,7,8,9,10,11,13a,14,14a,15,16,16a-hexadecahydrocyclopropa[n]pyrrolo [2,1-c][1,4,7]triazacyclopentadecin-6-yl)acetate]: less than 1 µM.
Turning to `COc1ccc2c(O[C@@H]3C[C@H]4C(=O)N[C@]5(C(=O)NS(=O)(=O)C6CC6)C[C@H]5/C=C\CCCC(=O)N[C@@H](CC(=O)N5CCCCC5)C(=O)N4C3)cc(-c3ccccc3)nc2c1` [Compound 15, (2R,6S,14aR,16aS,Z)-N-(cyclopropylsulfonyl)-2-(7-methoxy-2-phenylquinolin-4-yloxy)-5,8,16-trioxo-6-(2-oxo-2-(piperidin-1-yl)ethyl)-1,2,3,5,6,7,8,9,10,11,13a,14,14a,15,16,16a hexadecahydrocyclopropa[n]pyrrolo [2,1-c][1,4,7]triazacyclopentadecine-14a-carboxamide], the EC50 is less than 1 µM.
Regarding `CCOC(=O)[C@@]12C[C@@H]1/C=C\CCCC(=O)N[C@@H](C(C)(C)C)C(=O)N1C[C@H](Oc3cc(-c4ccccc4)nc4cc(OC)ccc34)C[C@H]1C(=O)N2` [Compound 1, (2R,6S,13aR,14aR,16aS,Z)-ethyl 6-tert-butyl-2-(7-methoxy-2-phenylquinolin-4-yloxy)-5,8,16-trioxo-1,2,3,5,6,7,8,9,10,11,13a,14,14a,15,16,16a-hexadecahydrocyclopropa[n]pyrrolo[2,1-c] [1,4,7]triazacyclopentadecine-14a-carboxylate], the EC50 is more than 10 µM.
On the same count and under the same terms, next, `CCOC(=O)C12CC1/C=C\CCCC(=O)N(CCCCCC(=O)O)[C@@H](C(C)(C)C)C(=O)N1C[C@H](Oc3cc(-c4ccccc4)nc4cc(OC)ccc34)C[C@H]1C(=O)N2` (stereo partly drawn) [Compound 3, 6-((2R,6S,16aS,Z)-6-tert-butyl-14a-(ethoxycarbonyl)-2-(7-methoxy-2-phenylquinolin-4-yloxy)-5,8,16-trioxo-2,3,5,6,8,9,10,11,13a,14,14a,15,16,16a-tetradecahydrocyclopropa[n]pyrrolo[2,1-c] [1,4,7]triazacyclopentadecin-7(1H)-yl)hexanoic acid]: more than 10 µM.
Turning to `COc1ccc2c(O[C@@H]3C[C@H]4C(=O)N[C@]5(C(=O)NS(=O)(=O)C6CC6)C[C@H]5/C=C\CCCC(=O)N(C)[C@@H](C(C)(C)C)C(=O)N4C3)cc(-c3ccccc3)nc2c1` [Compound 10, (2R,6S,13aS,14aR,16aS,Z)-6-tert-butyl-N-(cyclopropylsulfonyl)-2-(7-methoxy-2-phenylquinolin-4-yloxy)-7-methyl-5,8,16-trioxo-1,2,3,5,6,7,8,9,10,11,13a,14,14a,15,16,16a-hexadecahydrocyclopropa[n]pyrrolo[2,1-c] [1,4,7]triazacyclopentadecine-14a-carboxamide], the EC50 was more than 10 µM.

The record behind these values is patent publication US8445430B2, “Cyclic carboxamide compounds and analogues thereof as of hepatitis C virus” (Achillion Pharmaceuticals, Inc., priority 2008, dated 2013).
